Experimental data: article PMC9527314, “Structural insights into the binding of zoledronic acid with RANKL via computational simulations” (Frontiers in Molecular Biosciences, 2022)
pKd: −log10 of the molar value.

Target: T1, human RANKL trimer (Homo sapiens, UniProt O14788)
T1 construct: gene TNFSF11; recombinant human RANKL trimer protein from ACROBiosystems; homotrimer; amine-coupled to CM5 chip
T1 sequence (O14788 140-317 limits assumed): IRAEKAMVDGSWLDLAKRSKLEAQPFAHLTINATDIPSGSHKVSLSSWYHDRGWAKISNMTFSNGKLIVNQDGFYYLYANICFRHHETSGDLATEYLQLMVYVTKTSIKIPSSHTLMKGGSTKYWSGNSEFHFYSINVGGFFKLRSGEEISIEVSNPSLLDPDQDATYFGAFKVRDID
Test: SPR (Biacore T200), RANKL immobilised on CM5 chip, steady-state fit
Type: binding

pKd: 3.64
SMILES: O=P(O)(O)C(O)(Cn1ccnc1)P(=O)(O)O [Zoledronic acid]
